One compound from patent publication US4761414A, “Substituted 1H-pyrimido[1,2-a-]-pyrido[3,4-e]pyrazine 6 oxides” (G. D. Searle & Co., priority 1986, dated 1988) can be followed below.

Assay [1] has as its system B. fragilis NCTC 10581. Put plainly: MIC/MBC against Bacteroides fragilis strain A (96-well microtitre plates, anaerobic chamber). The note with it: Bacteroides fragilis. In kind it is cell-based.
For assay [2], the system named is B. fragilis NCTC 9343. Put plainly: MIC/MBC against Bacteroides fragilis strain B. In kind it is cell-based. The procedure, abridged:
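Broth microdilution in Wilkens-Chalgren broth, final inoculum 10^5 cells/ml, incubated anaerobically (85% N2, 10% CO2, 5% H2) 48 hours at 37° C. MIC read visually as lowest concentration with no detectable growth; MBC by subculturing 50 μl from each well into fresh medium.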

Assay [3] deals with B. fragilis WS-1. Put plainly: MIC/MBC against Bacteroides fragilis strain E. In kind it is cell-based. A digest of the protocol: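 Anaerobic broth microdilution (Wilkens-Chalgren broth), final inoculum 10^5 cells/ml, 48 h at 37° C. under 85% N2/10% CO2/5% H2. MIC read visually as lowest concentration with no detectable growth; MBC from 50 μl aliquots of each well subcultured into fresh medium.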

Assay [4] relates to Clostridium perfringens NCTC 8237. Put plainly: microbe, parasite or virus in culture. In kind it is cell-based. As to conditions: Clostridium perfringens, NCTC8237, Clostridium perfringens NCTC 8237; procedures of Example 40.
For assay [5], the system named is Costridium difficile NCIB 10666. Put plainly: MIC vs panel of anaerobes. Format: cell-based, C. difficile. As to conditions: Clostridioides difficile, NCIB10666, C. difficile NCIB 10666; procedures of Example 40; read-out: MIC.
In assay [6] the test system is Campylobacter fetus ss. jejuni NCTC 10842. Put plainly: MIC vs panel of anaerobes. Format: cell-based. As to conditions: NCTC10842, procedures of Example 40.
Assay [7] has as its system Fusobacterium necrophorum ATCC 11295. Put plainly: MIC vs panel of anaerobes. Format: cell-based. As to conditions: Fusobacterium necrophorum, ATCC11295, Fusobacterium necrophorum ATCC 11295; procedures of Example 40; read-out: MIC.
The subject of assay [8] is Propionebacterium acnes NCTC 737. Put plainly: MIC vs panel of anaerobes. Format: cell-based. As to conditions: procedures of Example 40.

Values after ≈ are worked out from the molar mass of the structure shown.

What is called MBC is the smallest concentration meeting the test's criterion for killing. A lower MBC goes with more potent killing. For the compound `CCC1(C)CN=C2C(c3ccccc3)=[N+]([O-])c3cccnc3N2C1` (centres unmarked) [Example 24, 2,3-Dihydro-2-ethyl-2-methyl-5-phenyl-1H-pyrimido[1,2-a]pyrido[3,2-e]pyrazine 6-oxide], the MBC was below 0.8 µg/mL in assay [1] (NCTC10581, 99.9% reduction in viable count); below 0.8 µg/mL in assay [2] (NCTC9343, 99.9% reduction in viable count); below 0.8 µg/mL in assay [3] (WS1, 99.9% reduction in viable count). For the same compound, the MIC in assay [1] (NCTC10581, 48 h, 48 hours, 37° C., anaerobic) is below 0.8 µg/mL; in assay [2] (NCTC9343, 48 h, 48 hours, 37° C., anaerobic), below 0.8 µg/mL; in assay [3] (WS1, 48 h, 48 hours, 37° C., anaerobic), below 0.8 µg/mL; in assay [4], 6.2 µg/mL (≈ 19.4 µM); in assay [5], below 0.8 µg/mL; in assay [6] it was 100 µg/mL (≈ 312 µM). For the same compound, the MIC is below 0.8 µg/mL in assay [7] and 100 µg/mL (≈ 312 µM) in assay [8].
